Read-outs that look alike come from different tables or passages of the source.

A short description of this series: Phase 1 single-dose study, urinary excretion of solriamfetol. Conditions: for Fe(0-48), fraction of the dose excreted unchanged in urine in 48 hours, mean ± SD (%CV) / CL renal: single 75-mg dose; for cumulative amount excreted in urine: Group 5 ESRD, 1 participant; for CL renal: both sexes, human, urine, oral, 75 mg, read-out: CLR, renal clearance, mean ± SD (%CV) (converted). Type of series: in vivo, human. Here is the method:
Groups 1-4 received one dose of solriamfetol HCl (89.3 mg; equivalent to 75-mg solriamfetol) on day 1; Group 5 received one dose equivalent to 75-mg dose on day 1 followed by 4-hour hemodialysis (designated Group 5.2), and one dose equivalent to 75-mg solriamfetol on day 8 without hemodialysis (designated Group 5.1). All doses were administered on an empty stomach following an overnight fast except for participants in Group 5, who received a standardized snack on day 7 and breakfast early on day 8 before starting an 8-hour fast. Participants remained fasting for 4 hours after administration, with water allowed except for 1 hour before and after dosing.
Urine samples were collected predose and for the time intervals of 0-4, 4-8, 8-12, 12-24, and 24-48 hours in Groups 1-3, with additional collection for the 48-72 hour time interval in Groups 4 and 5. During the hemodialysis period on day 1 for Group 5, dialysate samples and pre- and post-dialyzer paired blood samples were collected at pre-dialysis (2 hours), and at 3, 4, 5, and 6 hours following dosing. Urine and dialysate samples were aliquoted into polypropylene tubes for freezing and storage at -70° C. until analysis. All blood, urine, and dialysate samples were shipped on dry ice to a central bioanalytical laboratory.
Bioanalytical analyses were performed by a central laboratory (KCAS, LLC, Shawnee, Kansas) using validated proprietary methods that included extraction/derivatization and liquid chromatography-tandem mass spectrometry (LC-MS/MS). Measurement of solriamfetol was over the linear range of 8.42 to 4,210 ng/mL in plasma, 0.21 to 84.2 µg/mL in urine, and 1.68 to 842 ng/mL in dialysate. Solriamfetol was removed from dialysate samples with use of the Fresenius Optiflux F180NR dialyzer (Fresenius Medical Care, Waltham, Massachusetts). Assay performance was monitored by spiking blank interference free human plasma with positive controls and internal standards to generate standard curve and quality control samples. After derivatization, samples were chromatographed on a C8 reversed phase analytical HPLC (high-performance liquid chromatography) column, with subsequent monitoring using an API4000 LC-MS/MS unit (Sciex, Framingham, Massachusetts). Quantification was based on setting a calibration graph using the internal standard method. Coefficients of variation (CVs) for quality control samples were 3.2% to 6.0% for the plasma samples, 1.6% to 5.6% for the urine samples, and 3.5% to 7.1% for the dialysate samples.
The following plasma PK parameters were evaluated using non-compartmental analysis in Phoenix® WinNonlin® Version 6.3: Cmax; time to reach Cmax following drug administration (tmax); t½; area under the plasma concentration-time curve from time zero to time of last quantifiable concentration (AUCt); AUC from time zero to infinity (AUC∞); apparent total clearance of the drug from plasma after oral administration (CL/F); and apparent volume of distribution (Vd/F). The PK parameters for solriamfetol in urine included the amount of unchanged drug excreted in urine (Ae) over 48 or 72 hours; the fraction of the dose excreted unchanged in urine (Fe); and renal clearance of the drug (CLR). For participants on hemodialysis (Group 5), the additional PK parameters included the amount of solriamfetol cleared by the 4-hour hemodialysis (Adial); the fraction of dose removed by the 4-hour hemodialysis (Fdial); and hemodialysis clearance (CLdial) calculated as CLdial = Adial/AUCdial where AUCdial is the area under the pre-dialyzer plasma concentration-time curve during the hemodialysis period.

Setting [1] is: Group 3 moderate renal impairment.
[2] abbreviates: Group 4 severe renal impairment.

On to `NC(=O)OC[C@H](N)Cc1ccccc1` [solriamfetol, [R]-2-amino-3-phenylpropylcarbamate], for which the “Fe(0-48), fraction of the dose excreted unchanged in urine in 48 hours, mean ± SD (%CV)” value is, setting by setting: (Group 1 normal renal function) 85.8%; (Group 2 mild renal impairment) 80.0%; under setting [1], 66.4%; under setting [2], 57.1%. In addition, the “cumulative amount excreted in urine” value (with hemodialysis) is 42.1% and the “cumulative amount excreted in urine” value (without hemodialysis) is 52.9%. The CL renal (Group 1 normal renal function) was 283 mL/min, the CL renal (Group 2 mild renal impairment) was 155 mL/min, the CL renal under setting [1] is 96.7 mL/min and the CL renal under setting [2] was 63.3 mL/min. For the same compound, where the note is “severe renal impairment”, the “mean percentage of dose recovered in urine as unchanged drug over 72 hours” value came out at 64.0%.
